Among the test systems are IGROV1 ovarian; SW-620 colon; SK-MEL-28 melanoma; HT29 colon; NCI-H23 lung; NCI-H460 lung; HCT-15 colon; SN12C renal; HOP-62 NSCLC; ACHN renal; OVCAR-4 ovarian; KM12 colon; UACC-62 melanoma; MOLT-4 leukemia; TK-10 renal; EKVX NSCLC; UACC-257 melanoma; OVCAR-5 ovarian; UO-31 renal; SK-MEL-2 melanoma.
What all share (assay): NCI tumour cell line growth inhibition, 48 h

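Interpolation was linear, between the two tested concentrations surrounding the appropriate level; five concentrations were tested over 48 hours in 96-well plates. At the TGI there is no net growth.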

Regarding `C=C1C(=O)OC2/C=C(\C)C3OC3/C=C(/C(=O)OC)C(O)C(OC(=O)C3(C)OC3C)C12` (stereo not given), the TGI in the experiment on IGROV1 ovarian worked out at 8.45 µM; in the experiment with SW-620 colon, 3.1 µM; in the experiment on SK-MEL-28 melanoma, 3.17 µM; with HT29 colon, 3.63 µM; in the experiment on NCI-H23 lung, 3.5 µM; in the experiment with NCI-H460 lung, 17.8 µM. Further, the TGI with HCT-15 colon was 3.78 µM; with SN12C renal it was 5.64 µM; in the experiment on HOP-62 NSCLC, 35.8 µM; with ACHN renal it was 10.7 µM; with OVCAR-4 ovarian, 8.77 µM; in the experiment on KM12 colon, 11.2 µM. For the same compound, the TGI in the experiment on UACC-62 melanoma worked out at 5.19 µM; in the experiment on MOLT-4 leukemia, 4.05 µM; in the experiment on TK-10 renal it was 9.14 µM; with EKVX NSCLC, 7.44 µM; in the experiment on UACC-257 melanoma it was 3.45 µM; in the experiment with OVCAR-5 ovarian it was 30.4 µM. Moreover, the TGI in the experiment on UO-31 renal turned out to be 27.3 µM; in the experiment on SK-MEL-2 melanoma, 6.46 µM.

Turning to `CC(N)C(=O)OCN1C(=O)C2C3C=CC(C2C1=O)C1C2C(=O)N(COC(=O)C(C)N)C(=O)C2C31` (stereo not given), the TGI is above 100 µM in the experiment on IGROV1 ovarian; 47.4 µM in the experiment on SW-620 colon; 41.4 µM in the experiment with SK-MEL-28 melanoma; above 100 µM in the experiment on HT29 colon; 43.2 µM with NCI-H23 lung; 34.3 µM with NCI-H460 lung. The TGI with HCT-15 colon was 37.9 µM; with SN12C renal, 55.8 µM; in the experiment on HOP-62 NSCLC, above 100 µM; in the experiment with ACHN renal, 70.4 µM; in the experiment with OVCAR-4 ovarian, 40.9 µM; in the experiment on KM12 colon, 41.6 µM. Besides, the TGI in the experiment on UACC-62 melanoma was 49 µM; with MOLT-4 leukemia, 51.8 µM; in the experiment on TK-10 renal, above 100 µM; with EKVX NSCLC, above 100 µM; in the experiment on UACC-257 melanoma it was 75.4 µM; with OVCAR-5 ovarian it was above 100 µM. Further, the results for the TGI with UO-31 renal and in the experiment on SK-MEL-2 melanoma were above 100 µM and 39 µM, respectively.

For `O=Nc1c(-c2c(O)[nH]c3ccccc23)[nH]c2ccccc12`, the TGI with IGROV1 ovarian was 22 µM; in the experiment on SW-620 colon, above 100 µM; in the experiment with SK-MEL-28 melanoma, 27.7 µM; in the experiment on HT29 colon it was above 57.8 µM; with NCI-H23 lung, above 44.6 µM; in the experiment on NCI-H460 lung, 28.7 µM. In addition, the TGI is above 87.5 µM in the experiment on HCT-15 colon; 13.3 µM in the experiment with SN12C renal; above 48.6 µM in the experiment on HOP-62 NSCLC; above 32.1 µM in the experiment with ACHN renal; 34.1 µM in the experiment on OVCAR-4 ovarian; above 38.7 µM in the experiment with KM12 colon. Also, the TGI in the experiment on UACC-62 melanoma was 11.1 µM; with MOLT-4 leukemia, above 100 µM; with TK-10 renal, 55.2 µM; with EKVX NSCLC, 9.12 µM; in the experiment with UACC-257 melanoma, above 72.3 µM; in the experiment with OVCAR-5 ovarian, above 86.4 µM. Further, the TGI was 13.4 µM in the experiment on UO-31 renal and 7.62 µM in the experiment with SK-MEL-2 melanoma.

On to `NC(=O)c1ccc(NS(=O)(=O)c2ccc(N)cc2)nc1`, for which the TGI in the experiment on IGROV1 ovarian, with SW-620 colon, in the experiment on SK-MEL-28 melanoma, in the experiment with HT29 colon, in the experiment with NCI-H23 lung and with NCI-H460 lung was above 100 µM in each case. For the same compound, the TGI with HCT-15 colon, in the experiment on SN12C renal, in the experiment with HOP-62 NSCLC, in the experiment on ACHN renal, in the experiment on OVCAR-4 ovarian and in the experiment on KM12 colon was above 100 µM in each case. Moreover, the TGI with UACC-62 melanoma, in the experiment on MOLT-4 leukemia, with TK-10 renal, in the experiment on EKVX NSCLC, with UACC-257 melanoma and in the experiment on OVCAR-5 ovarian was above 100 µM in each case. In addition, the TGI with UO-31 renal and with SK-MEL-2 melanoma was above 100 µM each time.

On to `CN(C)CCCNC(=O)c1cc(NC(=O)c2cc(NS(=O)(=O)c3ccc4c(c3)C(=O)c3ccccc3C4=O)cn2C)cn1C`, for which the TGI in the experiment with IGROV1 ovarian, in the experiment on SW-620 colon, with SK-MEL-28 melanoma, in the experiment with HT29 colon, in the experiment on NCI-H23 lung and in the experiment with NCI-H460 lung was above 100 µM each time. Also, the TGI in the experiment with HCT-15 colon, with SN12C renal, with HOP-62 NSCLC, with ACHN renal, in the experiment on OVCAR-4 ovarian and in the experiment on KM12 colon was above 100 µM in each case. Besides, the TGI in the experiment with UACC-62 melanoma, with MOLT-4 leukemia, in the experiment on TK-10 renal, in the experiment with EKVX NSCLC, in the experiment with UACC-257 melanoma and with OVCAR-5 ovarian was above 100 µM throughout. The TGI in the experiment on UO-31 renal and with SK-MEL-2 melanoma was above 100 µM in each case.

The values above are taken from PubChem BioAssay (NCI).
